PubChem BioAssay AID1259407 (Chemical Carcinogenesis Research Information System (CCRIS), 2018)
Active and inactive are the calls of the source. The rule behind the calls is not given here.

Test system: CCRIS mutagenicity, Ames/micronucleus/aberration tests
Assay: CCRIS mutagenicity studies
[1] = Test System: AMES SALMONELLA TYPHIMURIUM, Strain/Indicator: TA98, Metabolic Activation: NONE, Method: STANDARD PLATE
[2] = Test System: AMES SALMONELLA TYPHIMURIUM, Strain/Indicator: TA100, Metabolic Activation: NONE, Method: STANDARD PLATE
[3] = Test System: CHINESE HAMSTER V-79, Strain/Indicator: V-79/8-AZAGUANINE, Metabolic Activation: NONE, Method: STANDARD PLATE
[4] = Test System: AMES SALMONELLA TYPHIMURIUM, Strain/Indicator: TA98, Metabolic Activation: RAT, LIVER, S-9, AROCLOR 1254, Method: STANDARD PLATE
[5] = Test System: AMES SALMONELLA TYPHIMURIUM, Strain/Indicator: TA98, Metabolic Activation: NONE, Method: PREINCUBATION
[6] = Test System: AMES SALMONELLA TYPHIMURIUM, Strain/Indicator: TA100, Metabolic Activation: NONE, Method: PREINCUBATION

O=C(Nc1ccc(F)cc1)c1csc([N+](=O)[O-])c1
mutagenic call [1]: active; positive | mutagenic call [2]: active; positive

Cc1ccc2cc3c(c4c2c1CC4)C1OC1c1ccccc1-3 (stereo not given)
mutagenic call [1]: active; positive | mutagenic call [2]: active; positive | mutagenic call [3]: active; positive

CC(Cl)CO (stereo not given)
mutagenic call (Test System: AMES SALMONELLA TYPHIMURIUM, Strain/Indicator: TA1530, Metabolic Activation: NONE, Method: STANDARD PLATE): active; positive | mutagenic call (Test System: AMES SALMONELLA TYPHIMURIUM, Strain/Indicator: TA1535, Metabolic Activation: RAT, LIVER, S-9, PCB, Method: STANDARD PLATE): active; positive

COc1cc([N+](=O)[O-])ccc1N
mutagenic call [1]: active; positive | mutagenic call [4]: active; positive

O[C@@H]1[C@@H]2O[C@@H]2c2c(ccc3cc4ccc5ccccc5c4nc23)[C@H]1O
mutagenic call [5]: active; positive | mutagenic call [6]: active; positive | mutagenic call [3]: active; positive

ClCc1c2ccccc2c2ccc3cccc4ccc1c2c43
mutagenic call [1]: inactive; negative | mutagenic call [2]: inactive; negative

Nc1cccc([N+](=O)[O-])c1CO
mutagenic call [5]: inactive; negative | mutagenic call (Test System: AMES SALMONELLA TYPHIMURIUM, Strain/Indicator: TA98, Metabolic Activation: RAT, LIVER, S-9, PHENOBARBITAL AND 5,6-BENZOFLAVONE, Method: PREINCUBATION): inactive; negative | mutagenic call [6]: inactive; negative | mutagenic call (Test System: AMES SALMONELLA TYPHIMURIUM, Strain/Indicator: TA100, Metabolic Activation: RAT, LIVER, S-9, PHENOBARBITAL AND 5,6-BENZOFLAVONE, Method: PREINCUBATION): inactive; negative

CC(=O)Nc1ccc(OC(=O)c2ccccc2OC(C)=O)cc1
mutagenic call (Test System: AMES SALMONELLA TYPHIMURIUM, Strain/Indicator: TA97, Metabolic Activation: NONE, Method: STANDARD PLATE): inactive; negative | mutagenic call (Test System: AMES SALMONELLA TYPHIMURIUM, Strain/Indicator: TA97, Metabolic Activation: RAT, LIVER, S-9, AROCLOR 1254, Method: STANDARD PLATE): inactive; negative | mutagenic call [1]: inactive; negative | mutagenic call [4]: inactive; negative | mutagenic call [2]: inactive; negative | mutagenic call (Test System: AMES SALMONELLA TYPHIMURIUM, Strain/Indicator: TA100, Metabolic Activation: RAT, LIVER, S-9, AROCLOR 1254, Method: STANDARD PLATE): inactive; negative | mutagenic call (Test System: AMES SALMONELLA TYPHIMURIUM, Strain/Indicator: TA1535, Metabolic Activation: NONE, Method: STANDARD PLATE): inactive; negative | mutagenic call (Test System: AMES SALMONELLA TYPHIMURIUM, Strain/Indicator: TA1535, Metabolic Activation: RAT, LIVER, S-9, AROCLOR 1254, Method: STANDARD PLATE): inactive; negative | mutagenic call (Test System: AMES SALMONELLA TYPHIMURIUM, Strain/Indicator: TA1537, Metabolic Activation: NONE, Method: STANDARD PLATE): inactive; negative | mutagenic call (Test System: AMES SALMONELLA TYPHIMURIUM, Strain/Indicator: TA1537, Metabolic Activation: RAT, LIVER, S-9, AROCLOR 1254, Method: STANDARD PLATE): inactive; negative | mutagenic call (Test System: AMES SALMONELLA TYPHIMURIUM, Strain/Indicator: TA1538, Metabolic Activation: NONE, Method: STANDARD PLATE): inactive; negative | mutagenic call (Test System: AMES SALMONELLA TYPHIMURIUM, Strain/Indicator: TA1538, Metabolic Activation: RAT, LIVER, S-9, AROCLOR 1254, Method: STANDARD PLATE): inactive; negative
